Data from US20230027066A1 (Urovant Sciences GmbH, priority 2019, published 2023).

Key:
Type in all cases: in vivo, human
[1] = test system: men and women with overactive bladder; assay: Phase 3 study (75 mg), patient-reported outcomes (OAB-q LF, PGI); parameters: OAB-q sleep score, improvement greater than placebo / HRQL Total Score, improvement greater than placebo / OAB-q HRQL Total Score, Active - Placebo LS Means Difference: scale not given here
Text: Patients completed paper questionnaires at the site at the start of each required study visit to assess patient-perceived symptom relief, symptom bother, and health-related quality of life at the study visits. […] These included the following questionnaires:
1. Global Impression Items include Patient Global Impression of Severity (PGI-Severity), Patient Global Impression of Control (PGI-Control), Patient Global Impression of Frequency (PGI-Frequency), Patient Global Impression of Leakage (PGI-Leakage), and Patient Global Impression of Change (PGI-Change).
2. Overactive Bladder Questionnaire (OAB-q long form [OAB-q LF], 1-week recall) is a 33-item patient-administered, disease-specific questionnaire that includes a Health-Related QoL (HRQL) scale (25 items) and a Symptom Bother Scale (8 items). The HRQL is a multidomain concept that represents the patient's general perception of the effect of illness and treatment on physical, psychological, and social aspects of life. […] In the present study, the HRQL scale is divided into 4 subscales: Coping, Concern/Worry, Sleep, and Social Interaction. The Coping subscale (also referred to as the coping domain score) was a secondary endpoint, with items scored from 1 (none of the time) to 6 (all the time), with higher scores indicating better QoL. The HRQL total score is calculated by summating the individual HRQL subscale scores. The Symptom Bother Scale items are scored from 1 (not at all) to 6 (a very great deal), with higher Symptom Bother scores indicating greater symptom severity. The instrument was developed and validated in both continent and incontinent OAB patients, including both men and women.
With the exception of the symptom bother score, a responder was defined as having a change from baseline ≥10. For symptom bother score, a responder was defined as having a change from baseline […]. A higher proportion of patients represented a favorable response.

[2] = Phase 3 study (75 mg), post-void residual urine volume (PVR)
Text: The risk of acute urinary retention or morbidities related to an increase in Post-Void Residual (PVR) is a concern with antimuscarinic therapy that promotes smooth muscle relaxation by inhibiting acetylcholine-induced smooth muscle contraction. If, during contraction, the bladder cannot generate enough pressure to overcome the outlet resistance in the urethra, either because of poor detrusor contractility or profound obstruction (most commonly from BPH), acute urinary retention or incomplete emptying of the bladder may result.
The volume of urine that remains in the bladder after voiding (PVR) is an objective measurement that may serve as a proxy for impaired ability to void.
PVR were performed via ultrasound at the visits indicated in the Schedule of Activities.

[3] = Phase 2b study, vital sign (HR, SBP, DBP) changes and orthostatic AEs; details: tolterodine 4 mg
Text: None led to discontinuation. The overall incidence of orthostatic symptoms was low.
Small differences in the percent of subjects exceeding categorical heart rate and blood pressure thresholds for vibegron were similar to those in the tolterodine arm.

[4] = 50% Total Incontinence Responders, Week 12
[5] = Week 12, responder = change from baseline ≥10
[6] = Males with medical history of BPH

Cc1ccc(O)c([C@H](CCN(C(C)C)C(C)C)c2ccccc2)c1 [Tolterodine ER, tolterodine, reference compound]
OAB-q Coping Subscore, Change from baseline at week 12, LS Means (SE) [1, 4]: 18.5 (1.49)
OAB-q Coping Subscore, Mean [1, 4]: 81.66 (20.882)
OAB-q Symptom Bother Subscore, Change from baseline at week 12, LS Means [1, 4]: −21.7
OAB-q Symptom Bother Subscore, Mean [1, 4]: 24.70
Change from Baseline in PGI-Control, LS Mean ([1]; 75% UUI Responders, Week 4): −0.7 (0.07)
PGI-Control, Mean (SD) ([1]; 75% UUI Responders, Week 4): 2.51 (0.907)
Change from Baseline in PGI-Control, LS Mean ([1]; 75% UUI Responders, Week 8): −1.0 (0.07)
PGI-Control, Mean (SD) ([1]; 75% UUI Responders, Week 8): 2.18 (0.861)
Change from Baseline in PGI-Control, LS Mean ([1]; 75% UUI Responders, Week 12): −1.1 (0.07)
OAB-q Coping Subscore, Change from baseline at week 12, LS Means (SE) ([1]; 75% UUI Responders, Week 12): 18.4 (1.73)
OAB-q Coping Subscore, Mean (SD) ([1]; 75% UUI Responders, Week 12): 83.05 (20.409)
OAB-q Symptom Bother Subscore, Change from Baseline at Week 12, LS Means (SE) ([1]; 75% UUI Responders, Week 12): −22.7 (1.60)
OAB-q Symptom Bother Subscore, Mean (SD) ([1]; 75% UUI Responders, Week 12): 22.59 (17.919)
PGI-Control, Mean (SD) ([1]; 75% UUI Responders, Week 12): 2.05 (0.862)
OAB-q Concern Subscore, Week 12 Mean (SD) ([1]; Week 12): 80.93 (21.467)
OAB-q Concern responders, Difference from Placebo ([1]; Week 12): 7.2
OAB-q Concern, Active - Placebo LS Means Difference ([1]; Week 12): 4.4
OAB-q Concern, change from baseline LS Means (SE) ([1]; Week 12): 14.7(1.32)
OAB-q Coping Score, Active - Placebo LS Means Difference ([1]; Week 12): 3.1
OAB-q Coping Score, change from baseline LS Means (SE) ([1]; Week 12): 15.9 (1.39)
OAB-q Coping Sub score, Week 12 Mean (SD) ([1]; Week 12): 77.77 (23.439)
OAB-q Coping responders, Difference from Placebo ([1]; Week 12): 6.9
OAB-q HRQL Total Score, Active - Placebo LS Means Difference ([1]; Week 12): 2.9
OAB-q HRQL Total Score, change from baseline LS Means (SE) ([1]; Week 12): 13.6 (1.19)
OAB-q Sleep Subscore, Week 12 Mean (SD) ([1]; Week 12): 74.25 (23.140)
OAB-q Sleep responders, Difference from Placebo ([1]; Week 12): −0.5
OAB-q Sleep, Active - Placebo LS Means Difference ([1]; Week 12): 2.6
OAB-q Sleep, change from baseline LS Means (SE) ([1]; Week 12): 12.9 (1.42)
OAB-q Social Interaction Subscore, Week 12 Mean (SD) ([1]; Week 12): 88.35 (18.214)
OAB-q Social Interaction responders, Difference from Placebo ([1]; Week 12): 2.2
OAB-q Social Interaction, Active - Placebo LS Means Difference ([1]; Week 12): 0.6
OAB-q Social Interaction, change from baseline LS Means (SE) ([1]; Week 12): 9.4 (1.03)
OAB-q Symptom Bother Subscore, Week 12 Mean (SD) ([1]; Week 12): 29.33 (19.568)
OAB-q Symptom Bother responders, Difference from Placebo ([1]; Week 12): 8.2
OAB-q Symptom Bother, Active - Placebo LS Means Difference ([1]; Week 12): −4.6
OAB-q Symptom Bother, change from baseline LS Means (SE) ([1]; Week 12): −17.4 (1.31)
OAB-q Total HRQL Score, Week 12 Mean (SD) ([1]; Week 12): 80.07 (19.826)
OAB-q Total HRQL responders, Difference from Placebo ([1]; Week 12): 3.1
OAB-q Symptom Bother responders, % ([1]; Week 12, responder = change from baseline ≤−10): (66.5) %
OAB-q Concern responders, % [1, 5]: (57.0) %
OAB-q Coping responders, % [1, 5]: (61.3) %
OAB-q Sleep responders, % [1, 5]: (51.3) %
OAB-q Social Interaction responders, % [1, 5]: (37.4) %
OAB-q Total HRQL responders, % [1, 5]: (51.8) %
OAB-q Concern responders, Odds Ratio ([1]; Week 12, vs placebo): 1.6
OAB-q Coping responders, Odds Ratio ([1]; Week 12, vs placebo): 1.5
OAB-q Sleep responders, Odds Ratio ([1]; Week 12, vs placebo): 1.1
OAB-q Social Interaction responders, Odds Ratio ([1]; Week 12, vs placebo): 1.2
OAB-q Symptom Bother responders, Odds Ratio ([1]; Week 12, vs placebo): 1.6
OAB-q Total HRQL responders, Odds Ratio ([1]; Week 12, vs placebo, logistic regression): 1.3
PVR category at Week 12 <100 mL, patients ([2]; Females): 94.4%
PVR category at Week 12 ≥100 mL to <200 mL, patients ([2]; Females): 5.3%
PVR category at Week 12 ≥200 mL to <350 mL, patients ([2]; Females): 0.3%
PVR category at Week 12 ≥350 mL, patients ([2]; Females): 0
PVR, Mean Change from Baseline at Week 12 (SD) ([2]; Females): 1.9 (40.24) mL
PVR category at Week 12 <100 mL, patients ([2]; Males): 85.2%
PVR category at Week 12 ≥100 mL to <200 mL, patients ([2]; Males): 11.5%
PVR category at Week 12 ≥200 mL to <350 mL, patients ([2]; Males): 3.3%
PVR category at Week 12 ≥350 mL, patients ([2]; Males): 0
PVR, Mean Change from Baseline at Week 12 (SD) ([2]; Males): 10.2 (44.24) mL
PVR category at Week 12 <100 mL, patients [2, 6]: 71.4%
PVR category at Week 12 ≥100 mL to <200 mL, patients [2, 6]: 28.6%
PVR category at Week 12 ≥200 mL to <350 mL, patients [2, 6]: 0%
PVR category at Week 12 ≥350 mL, patients [2, 6]: 0
PVR, Mean Change from Baseline at Week 12 (SD) [2, 6]: 3.7 (50.64) mL
PVR category at Week 12 <100 mL, patients ([2]; all patients): 86.5%
PVR category at Week 12 ≥100 mL to <200 mL, patients ([2]; all patients): 5.8%
PVR category at Week 12 ≥200 mL to <350 mL, patients ([2]; all patients): 0.7%
PVR category at Week 12 ≥350 mL, patients ([2]; all patients): 0
PVR, Mean Change from Baseline at Week 12 (SD) ([2]; all patients): 3.1 (40.93) mL
DBP change from baseline, mean (95% CI) maximum, week 1 to 8 [3]: 5.19 (4.26, 6.13) mm Hg
DBP change from baseline, mean (95% CI), week 1 [3]: −0.12 (−1.10, 0.86) mm Hg
HR change from baseline, mean (95% CI) maximum, week 1 to 8 [3]: 5.66 (4.69, 6.63) bpm
HR change from baseline, mean (95% CI), week 1 [3]: 0.68 (−0.31, 1.67) bpm
SBP change from baseline, mean (95% CI) maximum, week 1 to 8 [3]: 7.29 (6.01, 8.57) mm Hg
SBP change from baseline, mean (95% CI), week 1 [3]: 0.04 (−1.36, 1.43) mm Hg
